Tested on: MCF-7 cells
Test: MCF-7 cells proliferation assay (MTS)
Type: cell-based, human
Method: MCF-7 cells (human breast cancer cells) were obtained from the Korea Cell Line Bank and used. RPMI (Gibco, USA) medium containing 10% FBS (Gibco, USA) and 1% penicillin-streptomycin (Gibco, USA) was used as cell culture medium, and cells were cultured in 5% CO2, 37° C. incubator. The medium was replaced every two days, and cells were sub-cultured every 4-5 days. HUVECs (human umbilical vein endothelial cells) were obtained from LONZA and used. M200 (Gibco, USA) containing LSGS kit (Gibco, USA) was used as cell culture medium, and only cells at passage 3-5 were used for the experiment.
Estrogen-free medium, which was prepared by diluting phenol red-free RPMI (Gibco, USA) with 5% dextran-coated charcoal-stripped FBS (TCB, USA) and 1% penicillin-streptomycin, was used for the experiment. After reacting cells in the estrogen-free medium for 3 days, they were seeded in a 96-well plate at a concentration of 1.5×10^4 cells/well and incubated in 5% CO2, 37° C. incubator for 24 hours, and then were treated with the sample so that the final DMSO concentration was 0.1%. E2 was used as the positive control, and ICI 182,780 (Sigma Chem. Co., USA) was used as the negative control. After 72 hours of sample treatment, MTS analysis was performed using CellTiter 96®Aqueous One Solution (Promega, Germany) reagent. Each well was treated with 20 μl of MTS reagent, reacted in 5% CO2, 37° C. incubator for 3 hours, and the absorbance was measured at 490 nm using a microplate reader.
In order to ascertain whether each sample acts on the estrogen receptor to show a cell proliferation effect, the sample was treated together with the estrogen receptor inhibit ICI 182,780, and the results are shown in Table 9.

| SMILES | Proliferation (%) (Table 8, 1 nM, 72 hours, Control = 100) | Proliferation (%) with ICI 182,780 (Table 9, 1 nM, together with ICI 182,780) [%] | Proliferation (%) without ICI 182,780 (Table 9, 1 nM, without ICI 182,780) [%] | Proliferation (%) with ICI 182,780 (Table 9, Control (sample 0 μg/ml) with ICI 182,780 alone) [%] |
| --- | --- | --- | --- | --- |
| C[C@]12CC[C@@H]3c4ccc(O)cc4CC[C@H]3[C@@H]1CC[C@@H]2O [Estradiol, 17β-estradiol] | 135.78 ± 2.83 | 92.27 ± 2.04 | 143.39 ± 10.46 | – |
| C[C@]12CC[C@@H]3c4ccc(O)cc4C[C@@H](CCCCCCCCC[S+]([O-])CCCC(F)(F)C(F)(F)F)[C@H]3[C@@H]1CC[C@@H]2O (stereo partly shown) [ICI 182,780] | – | – | – | 86.55 ± 1.95 |

Reference: patent US20210401918A1, “COMPOSITION COMPRISING COMBINATION OF RED CLOVER EXTRACT AND HOPS EXTRACT FOR IMPROVEMENT OF MENOPAUSAL DISORDER” (NATURETECH CO. LTD., priority 2018, published 2021)
